Values of other authors in US20230248791A1, “METHODS FOR MANUFACTURING ANGELICA GIGAS NAKAI EXTRACT USING FERMENTATION BACTERIA” (Sooy-K Co., Ltd., priority 2022, published 2023).

Experiments:
[1] = test system: human dermal fibroblast
[2] = test system: ex vivo 3D human skin model
[3] = test system: microphthalmia-associated transcription factors (MITFs); conditions: via PKA/CREB, p38/ERK MARK, PI3K/Akt/GSK-3β
[4] = target: T1, cyclooxygenase-2 (COX-2) (Homo sapiens, UniProt P35354)
T1 sequence (P35354 18-604): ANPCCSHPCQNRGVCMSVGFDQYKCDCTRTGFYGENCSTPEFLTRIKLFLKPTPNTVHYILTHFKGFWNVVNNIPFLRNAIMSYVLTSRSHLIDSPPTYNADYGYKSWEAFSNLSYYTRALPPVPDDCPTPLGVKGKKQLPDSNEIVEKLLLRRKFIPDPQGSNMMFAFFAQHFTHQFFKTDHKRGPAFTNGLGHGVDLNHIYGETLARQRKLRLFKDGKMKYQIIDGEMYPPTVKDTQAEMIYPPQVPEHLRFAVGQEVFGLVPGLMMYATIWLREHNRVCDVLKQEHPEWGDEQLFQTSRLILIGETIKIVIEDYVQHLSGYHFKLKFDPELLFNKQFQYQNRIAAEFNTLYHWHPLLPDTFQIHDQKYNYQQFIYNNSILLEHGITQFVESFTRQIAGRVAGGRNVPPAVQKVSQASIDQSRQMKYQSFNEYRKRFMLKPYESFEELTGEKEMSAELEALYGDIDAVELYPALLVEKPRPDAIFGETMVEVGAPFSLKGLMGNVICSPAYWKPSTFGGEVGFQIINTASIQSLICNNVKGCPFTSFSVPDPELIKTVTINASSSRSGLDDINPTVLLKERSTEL

effect on COX-2 (anti-inflammatory mechanism) [4]: inhibiting cyclooxygenase-2 (COX-2)
SMILES: CC(C)=CC(=O)OC1Cc2cc3ccc(=O)oc3cc2OC1(C)C (stereo not shown) [decursin, 3-methyl-2-butenoic acid 2,2-dimethyl-8-oxo-3,4-dihydro-2H,8H-pyrano[3,2-g]chromen-3-yl ester]
UVA/UVB-induced skin damage and skin aging [1]: inhibits UVA/UVB-induced skin damage and skin aging
melanin synthesis [2]: prevents melanin synthesis
effect on MITFs, major transcription factor in melanin synthesis [3]: inhibit
